# Results from US10774071B2, “PD-1/PD-L1 inhibitors” (Gilead Sciences, Inc., priority 2018, dated 2020).
# pIC50: −log10 of the molar value.
# Legend:
# PD-1/PD-L1 = PD-1/PD-L1 (Homo sapiens (Human), UniProt Q9NZQ7); experiment: PD-1/PD-L1 biochemical protein-protein interaction assay (ALPHA); assay type: binding; conditions: 0.3 nM His tagged PD-L1, 2.5 nM biotinylated Fc-PD-1, Table 3B, read-out: IC50 PD-L1-PD1
# PD-L1 = PD-L1 (Homo sapiens (Human), UniProt Q9NZQ7); experiment: PD-L1/PD-L1 dimerization biochemical protein-protein interaction assay (ALPHA); assay type: binding; conditions: 0.5 nM His tagged PD-L1 and 0.5 nM FLAG tagged PD-L1, Table 4B, read-out: AC50 PDL1 Dimer 1 nM
# PD-L1, sequence (Q9NZQ7 19-238): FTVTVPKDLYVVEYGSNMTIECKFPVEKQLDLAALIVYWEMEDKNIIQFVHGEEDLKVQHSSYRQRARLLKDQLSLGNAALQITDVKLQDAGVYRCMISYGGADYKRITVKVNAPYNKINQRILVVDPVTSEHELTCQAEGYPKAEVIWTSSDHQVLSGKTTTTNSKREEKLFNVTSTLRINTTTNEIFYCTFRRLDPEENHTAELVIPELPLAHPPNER
# PD-L1, sequence (Q9NZQ7 19-238): as above
# PD-1/PD-L1, sequence (Q9NZQ7 19-238): as above
Structure (SMILES),pIC50 (PD-1/PD-L1),AC50 (PD-L1) [nM]
COc1nc(-c2cccc(-c3cccc4c3CC[C@@H]4Oc3nc(OC)c(CN4C5CCC4(C(=O)O)CC5)cc3C(F)(F)F)c2Cl)ccc1CN1CC2(CCC(=O)N2)C1 [B-227],10.19,3.12
COc1nc(-c2cccc(-c3cccc4c3CC[C@@H]4Oc3nc(OC)c(CN4C5CCC4(C(=O)O)CC5)cc3C(F)(F)F)c2Cl)ccc1CNC[C@@H]1CCC(=O)N1 [B-232],10.19,1.79
COc1nc(-c2cccc(-c3cccc4c3CC[C@@H]4Oc3nc(OC)c(CN4C[C@H]5C[C@H]5[C@H]4C(=O)O)cc3C(F)(F)F)c2Cl)ccc1CNC[C@@H]1CCC(=O)N1 [B-234],10.19,3.18
CC[C@@](C)(NCc1cc(C(F)(F)F)c(O[C@H]2CCc3c(-c4cccc(-c5ccc(CNC[C@@H]6CCC(=O)N6)c(OC)n5)c4Cl)cccc32)nc1OC)C(=O)O [B-235],10.19,2.42
CC[C@](C)(NCc1cc(C(F)(F)F)c(O[C@H]2CCc3c(-c4cccc(-c5ccc(CNC[C@@H]6CCC(=O)N6)c(OC)n5)c4Cl)cccc32)nc1OC)C(=O)O [B-236],10.19,3.02
COc1nc(-c2cccc(-c3cccc4c3CC[C@@H]4Oc3nc(OC)c(CN4CCC[C@@]4(C)C(=O)O)cc3C)c2Cl)ccc1CNC[C@@H]1CCC(=O)N1 [B-237],10.19,20.7
COc1nc(-c2cccc(-c3cccc4c3CC[C@@H]4Oc3nc(OC)c(CN4CCC[C@]4(C)C(=O)O)cc3C)c2Cl)ccc1CNC[C@@H]1CCC(=O)N1 [B-238],10.19,34.9
COc1nc(-c2cccc(-c3cccc4c3CC[C@@H]4Oc3nc(OC)c(CNCC(=O)O)cc3C)c2Cl)ccc1CNC[C@@H]1CCC(=O)N1 [B-239],10.19,21.3
COc1nc(-c2cccc(-c3cccc4c3CC[C@@H]4Oc3nc(OC)c(CNC(C)(CO)C(=O)O)cc3C)c2Cl)ccc1CNC[C@@H]1CCC(=O)N1 (some centres unmarked) [B-240],10.19,12.1
COc1nc(-c2cccc(-c3cccc4c3CC[C@@H]4Oc3nc(OC)c(CN[C@@H](C)C(=O)O)cc3C)c2Cl)ccc1CNC[C@@H]1CCC(=O)N1 [B-241],10.19,7.58
COc1nc(-c2cccc(-c3cccc4c3CC[C@@H]4Oc3nc(OC)c(CN[C@H](C)C(=O)O)cc3C)c2Cl)ccc1CNC[C@@H]1CCC(=O)N1 [B-242],10.19,18.9
COc1nc(O[C@H]2CCc3c(-c4cccc(-c5cc(C)c(CNC[C@@H]6CCC(=O)N6)c(OC)n5)c4Cl)cccc32)c(C)cc1CNC(C)(C)C(=O)O [B-243],10.19,15.8
COc1nc(O[C@H]2CCc3c(-c4cccc(-c5cc(C)c(CNC[C@@H]6CCC(=O)N6)c(OC)n5)c4Cl)cccc32)c(C)cc1CNC1(C(=O)O)CC1 [B-244],10.19,18
COc1nc(-c2cccc(-c3cccc4c3CC[C@@H]4Oc3nc(OC)c(CNC(C)(C)C(=O)O)cc3C)c2Cl)ccc1CNC[C@@H]1CCC(=O)N1 [B-245],10.19,5.94
COc1nc(-c2cccc(-c3cccc4c3CC[C@@H]4Oc3nc(OC)c(CNC4(C(=O)O)CC4)cc3C)c2Cl)ccc1CNC[C@@H]1CCC(=O)N1 [B-246],10.19,14
COc1nc(-c2cccc(-c3cccc4c3CC[C@@H]4Oc3nc(OC)c(CNC4(C(=O)O)CC4)nc3C(F)(F)F)c2Cl)ccc1CNC[C@@H]1CCC(=O)N1 [B-247],10.19,10.4
COc1nc(-c2cccc(-c3cccc4c3CC[C@@H]4Oc3nc(OC)c(CNCC(=O)N(C)C)cc3C(F)(F)F)c2Cl)ccc1CNC[C@@H]1CCC(=O)N1 [B-248],10.01,15.9
CNC(=O)[C@H](C)NCc1cc(C(F)(F)F)c(O[C@H]2CCc3c(-c4cccc(-c5ccc(CNC[C@@H]6CCC(=O)N6)c(OC)n5)c4Cl)cccc32)nc1OC [B-249],10.19,35.5
CNC(=O)CNCc1cc(C(F)(F)F)c(O[C@H]2CCc3c(-c4cccc(-c5ccc(CNC[C@@H]6CCC(=O)N6)c(OC)n5)c4Cl)cccc32)nc1OC [B-250],9.63,36.4
COc1nc(-c2cccc(-c3cccc4c3CC[C@@H]4Oc3nc(OC)c(CNCC4(C(=O)O)CC4)cc3C(F)(F)F)c2Cl)ccc1CN[C@H]1C[C@](C)(O)C1 [B-251],10.19,17.7
COc1nc(-c2cccc(-c3cccc4c3CC[C@@H]4Oc3nc(OC)c(CNCC(C)(C)C(=O)O)cc3C(F)(F)F)c2Cl)ccc1CN[C@H]1C[C@](C)(O)C1 [B-252],10.19,18
COc1nc(-c2cccc(-c3cccc4c3CC[C@@H]4Oc3nc(OC)c(CN[C@H](C)CC(=O)O)cc3C(F)(F)F)c2Cl)ccc1CN[C@H]1C[C@](C)(O)C1 [B-253],10.19,8.73
COc1nc(-c2cccc(-c3cccc4c3CC[C@@H]4Oc3nc(OC)c(CNCCC(=O)O)cc3C(F)(F)F)c2Cl)ccc1CN[C@H]1C[C@](C)(O)C1 [B-254],10.19,11.4
COc1nc(-c2cccc(-c3cccc4c3CC[C@@H]4Oc3nc(OC)c(CN[C@H](C(=O)O)C4CC4)cc3C(F)(F)F)c2Cl)ccc1CN[C@H]1C[C@](C)(O)C1 [B-255],10.19,7.89
COC[C@H](NCc1cc(C(F)(F)F)c(O[C@H]2CCc3c(-c4cccc(-c5ccc(CN[C@H]6C[C@](C)(O)C6)c(OC)n5)c4Cl)cccc32)nc1OC)C(=O)O [B-256],10.19,13.1
COc1nc(-c2cccc(-c3cccc4c3CC[C@@H]4Oc3nc(OC)c(CN(C)[C@@H](C)C(=O)O)cc3C(F)(F)F)c2Cl)ccc1CNC[C@@H]1CCC(=O)N1 [B-257],10.19,8.73
COc1nc(-c2cccc(-c3cccc4c3CC[C@@H]4Oc3nc(OC)c(CN(C)CC(=O)O)cc3C(F)(F)F)c2Cl)ccc1CNC[C@@H]1CCC(=O)N1 [B-258],10.19,5.9
COc1nc(-c2cccc(-c3cccc4c3CC[C@@H]4Oc3nc(OC)c(CN4CC(C)(O)C4)cc3C(F)(F)F)c2Cl)ccc1CNC[C@@H]1CCC(=O)N1 [B-260],10.19,18
COc1nc(-c2cccc(-c3cccc4c3CC[C@@H]4Oc3nc(OC)c(CNC[C@H]4C[C@](C)(O)C4)cc3C(F)(F)F)c2Cl)ccc1CNC[C@@H]1CCC(=O)N1 [B-261],10.12,4.63

# Continued by rising pIC50 (PD-1/PD-L1), values first:
pIC50 (PD-1/PD-L1),AC50 (PD-L1) [nM],Structure (SMILES)
10.19,8.42,COc1nc(-c2cccc(-c3cccc4c3CC[C@@H]4Oc3nc(OC)c(CN[C@@H](C)C(=O)O)cc3C(F)(F)F)c2Cl)ccc1CN[C@H]1C[C@](C)(O)C1 [B-215]
10.19,20.1,COc1nc(-c2cccc(-c3cc(F)cc4c3CC[C@@H]4Oc3nc(OC)c(CN4CC5(C(=O)O)CCC4CC5)cc3C(F)(F)F)c2Cl)ccc1CNC[C@@H]1CCC(=O)N1 [B-216]
10.19,28.9,COc1nc(-c2cccc(-c3cc(F)cc4c3CC[C@@H]4Oc3nc(OC)c(CN4CC[C@@H](C(=O)O)C4)cc3C(F)(F)F)c2Cl)ccc1CNC[C@@H]1CCC(=O)N1 [B-217]
10.19,17.3,COc1cc(O[C@H]2CCc3c(-c4cccc(-c5ccc(CNC[C@@H]6CCC(=O)N6)c(OC)n5)c4Cl)cccc32)c(C(F)(F)F)cc1CN1CC[C@@](C)(C(=O)O)C1 [B-218]
10.19,2.56,COc1cc(O[C@H]2CCc3c(-c4cccc(-c5ccc(CNC[C@@H]6CCC(=O)N6)c(OC)n5)c4Cl)cccc32)c(C(F)(F)F)cc1CNC(C)(C)C(=O)O [B-219]
10.19,2.04,COc1cc(O[C@H]2CCc3c(-c4cccc(-c5ccc(CNC[C@@H]6CCC(=O)N6)c(OC)n5)c4Cl)cccc32)c(C(F)(F)F)cc1CNC1(C(=O)O)CC1 [B-220]
10.19,17.5,COc1cc(O[C@H]2CCc3c(-c4cccc(-c5ccc(CNC[C@@H]6CCC(=O)N6)c(OC)n5)c4Cl)cccc32)c(C(F)(F)F)cc1CNCC(C)(C)C(=O)O [B-221]
10.19,13.5,COc1cc(O[C@H]2CCc3c(-c4cccc(-c5ccc(CNC[C@@H]6CCC(=O)N6)c(OC)n5)c4Cl)cccc32)c(C(F)(F)F)cc1CNC[C@@H](O)CC(=O)O [B-222]
10.19,18,COc1cc(O[C@H]2CCc3c(-c4cccc(-c5ccc(CNC[C@@H]6CCC(=O)N6)c(OC)n5)c4Cl)cccc32)c(C(F)(F)F)cc1CN1CCC[C@@]1(C)C(=O)O [B-223]
10.19,10.6,COc1cc(O[C@H]2CCc3c(-c4cccc(-c5ccc(CNC[C@@H]6CCC(=O)N6)c(OC)n5)c4Cl)cccc32)c(C(F)(F)F)cc1CN1CC2CCC1C(C(=O)O)C2 (some centres unmarked) [B-224]
10.19,5.32,COc1nc(O[C@H]2CCc3c(-c4cccc(-c5cnc(CNC[C@@H]6CCC(=O)N6)c(OC)n5)c4Cl)cccc32)c(C(F)(F)F)cc1CNC1(C(=O)O)CC1 [B-225]
10.19,5.33,COc1nc(-c2cccc(-c3cccc4c3CC[C@@H]4Oc3nc(OC)c(CN4CC5CCC4(C(=O)O)CC5)cc3C(F)(F)F)c2Cl)ccc1CN1CC2(CCC(=O)N2)C1 [B-226]
10.19,6.43,COc1nc(-c2cccc(-c3cccc4c3CC[C@@H]4Oc3nc(OC)c(CN4CCC5CC4(C(=O)O)C5)cc3C(F)(F)F)c2Cl)ccc1CN1CC2(CCC(=O)N2)C1 [B-228]
10.19,3.14,COc1nc(-c2cccc(-c3cccc4c3CC[C@@H]4Oc3nc(OC)c(CNC4(C(=O)O)CCC4)cc3C(F)(F)F)c2Cl)ccc1CNC[C@@H]1CCC(=O)N1 [B-229]
10.19,27.5,COc1nc(-c2cccc(-c3cccc4c3CC[C@@H]4Oc3nc(OC)c(CN[C@]4(C(=O)O)C[C@H](F)C4)cc3C(F)(F)F)c2Cl)ccc1CNC[C@@H]1CCC(=O)N1 [B-230]
10.19,12,COc1nc(-c2cccc(-c3cccc4c3CC[C@@H]4Oc3nc(OC)c(CN4CC5CCC4(C(=O)O)CC5)cc3Cl)c2Cl)ccc1CNC[C@@H]1CCC(=O)N1 [B-231]
10.19,0.518,COc1nc(-c2cccc(-c3cccc4c3CC[C@@H]4Oc3nc(OC)c(CN4CCC5CC4(C(=O)O)C5)cc3C(F)(F)F)c2Cl)ccc1CNC[C@@H]1CCC(=O)N1 [B-233]
